ChEMBL document CHEMBL1156829 (Proc Natl Acad Sci U S A, 2008)
pEC50: −log10 of the molar value.

Tests used:
Plasmodium falciparum [1] = assay: NOVARTIS: Inhibition of Plasmodium falciparum 3D7 (drug-susceptible) proliferation in erythrocyte-based infection assay; format: functional, organism-based; settings: Plasmodium falciparum, 3D7
Plasmodium falciparum [2] = assay: NOVARTIS: Inhibition of Plasmodium falciparum W2 (drug-resistant) proliferation in erythrocyte-based infection assay; format: functional, organism-based; settings: Plasmodium falciparum, W2; read-out: EC50
[3] = NOVARTIS: Cytotoxicity against human hepatocellular carcinoma cell line (Huh7); format: toxicity, cell-based, Huh-7; settings: Huh7 cells (hepatocellular carcinoma cell line)

O=C(NCCCN1CCCC1=O)c1ccc2nc(N3CCOCC3)sc2c1
pEC50 (Plasmodium falciparum [1]): 5.14
pEC50 (Plasmodium falciparum [2]): 5.33
CC50 [3]: 26.8 µM

CCCOc1ccc(C(=O)Nc2cccc(-c3nc4ncccc4o3)c2)cc1
pEC50 (Plasmodium falciparum [1]): 6.38
pEC50 (Plasmodium falciparum [2]): < 5.76
CC50 [3]: > 10 µM

COc1cc(C(=O)Nc2ccc3nc4n(c(=O)c3c2)CCCCC4)cc(OC)c1OC
pEC50 (Plasmodium falciparum [1]): < 6.23
pEC50 (Plasmodium falciparum [2]): 5.73
CC50 [3]: > 10 µM

CC1(C)Oc2ccc(C(=O)N3CCCC3)cc2N(CCc2ccccc2)C1=O
pEC50 (Plasmodium falciparum [1]): < 5.95
pEC50 (Plasmodium falciparum [2]): 5.73
CC50 [3]: > 10 µM

Cc1cccc(Nc2nc3nonc3[nH]c2=NN=Cc2cccs2)c1C
pEC50 (Plasmodium falciparum [1]): 5.06
pEC50 (Plasmodium falciparum [2]): 5.37
CC50 [3]: 23.3 µM

O=C(Nc1ccc2c(c1)OCO2)c1cc2cc(C3(O)CCN(CCCc4ccccc4)CC3)ccc2o1
pEC50 (Plasmodium falciparum [1]): 6.04
pEC50 (Plasmodium falciparum [2]): 5.93
CC50 [3]: 6.32 µM

COc1ccc(CCN(Cc2ccc(Cl)cc2)S(=O)(=O)c2ccc(S(N)(=O)=O)cc2)cc1OC
pEC50 (Plasmodium falciparum [1]): 5.33
pEC50 (Plasmodium falciparum [2]): < 4.90
CC50 [3]: 67.3 µM

CCOC(=O)c1[nH]c(C)c(CNc2cccc(OC)c2)c1C
pEC50 (Plasmodium falciparum [1]): 5.82
pEC50 (Plasmodium falciparum [2]): 5.92
CC50 [3]: 6.98 µM

COc1cccc(CNC(=O)Cn2ncc3c(=O)oc4ccc(C)cc4c32)c1
pEC50 (Plasmodium falciparum [1]): < 5.76
pEC50 (Plasmodium falciparum [2]): 5.75
CC50 [3]: > 10 µM

CCOC(=O)C1=C(C)NC2=C(C(=O)CCC2)C1c1cc(Br)c(O)c(OCC)c1 (centres undefined)
pEC50 (Plasmodium falciparum [1]): < 6.29
pEC50 (Plasmodium falciparum [2]): < 5.75
CC50 [3]: > 10 µM

O=C(NC(C(=O)c1ccccc1)N1CCCCC1)c1ccco1 (centres undefined)
pEC50 (Plasmodium falciparum [1]): < 6.08
pEC50 (Plasmodium falciparum [2]): < 5.75
CC50 [3]: > 10 µM

Cc1ccccc1NC(=O)N(CCCNC(=O)CCl)c1ccccc1
pEC50 (Plasmodium falciparum [1]): < 6.35
pEC50 (Plasmodium falciparum [2]): 5.75
CC50 [3]: > 10 µM

O=C(c1ccncc1)N1N=C(c2c(-c3ccccc3)c3cc(Br)ccc3[nH]c2=O)CC1c1ccccc1 (centres undefined)
pEC50 (Plasmodium falciparum [1]): 6.84
pEC50 (Plasmodium falciparum [2]): 5.81
CC50 [3]: 8.7 µM

Oc1ccccc1C=NNc1nnc2c3ccccc3n(Cc3ccccc3)c2n1
pEC50 (Plasmodium falciparum [1]): < 6.08
pEC50 (Plasmodium falciparum [2]): < 5.76
CC50 [3]: > 10 µM

Brc1cc(Br)c2c(-c3ccccc3)n(-c3ccccc3)nc(-c3ccccc3)c1-2
pEC50 (Plasmodium falciparum [1]): 6.12
pEC50 (Plasmodium falciparum [2]): < 5.77
CC50 [3]: > 10 µM

CN1CCN(N/C=C2/C(=O)N(c3nc4ccccc4s3)N=C2c2ccccc2)CC1
pEC50 (Plasmodium falciparum [1]): < 6.26
pEC50 (Plasmodium falciparum [2]): < 5.76
CC50 [3]: > 10 µM

C[C@@H]1C[C@@H](C)C(=O)[C@@H](C(O)CC2CC(=O)NC(=O)C2)C1 (some centres undefined)
pEC50 (Plasmodium falciparum [1]): 6.82
pEC50 (Plasmodium falciparum [2]): 6.44
CC50 [3]: 2.14 µM

O=[N+]([O-])c1ccc2nc(NC3CCCCC3)c(NC3CCCCC3)nc2c1
pEC50 (Plasmodium falciparum [1]): 5.60
pEC50 (Plasmodium falciparum [2]): 5.58
CC50 [3]: 14.7 µM

O=C(COC(=O)c1ccccc1O)c1ccc(Br)cc1
pEC50 (Plasmodium falciparum [1]): 5.81
pEC50 (Plasmodium falciparum [2]): 5.74
CC50 [3]: > 10 µM

Cc1ccc(-n2c(=S)sc3c(=O)n(-c4ccccc4)c(SCC(=O)c4ccccc4)nc32)cc1C
pEC50 (Plasmodium falciparum [1]): < 5.90
pEC50 (Plasmodium falciparum [2]): 5.75
CC50 [3]: > 10 µM

COc1cccc(C2(NC(=O)CCn3ccnc3-c3ccccc3)CCCC2)c1
pEC50 (Plasmodium falciparum [1]): < 5.90
pEC50 (Plasmodium falciparum [2]): 5.75
CC50 [3]: > 10 µM

COc1ccc(-c2ccc(C(=O)N(C)Cc3cscn3)c(N3CCC(N4CCc5ccccc5C4)CC3)n2)cc1
pEC50 (Plasmodium falciparum [1]): < 5.90
pEC50 (Plasmodium falciparum [2]): 5.76
CC50 [3]: > 10 µM

COc1cc(-c2nc(-c3ccccc3)c(-c3ccc(O)cc3)[nH]2)cc(OC)c1O
pEC50 (Plasmodium falciparum [1]): 6.06
pEC50 (Plasmodium falciparum [2]): < 5.76
CC50 [3]: > 10 µM

CCOC(=O)C1=C(C)N/C(=C\c2cc(C)n(-c3ccc(C)cc3C)c2C)C1=O
pEC50 (Plasmodium falciparum [1]): < 5.90
pEC50 (Plasmodium falciparum [2]): 5.76
CC50 [3]: > 10 µM

CCOC(=O)c1cnc2ccc(OC)cc2c1Nc1ccc(N2CCN(C)CC2)cc1
pEC50 (Plasmodium falciparum [1]): 5.96
pEC50 (Plasmodium falciparum [2]): < 5.77
CC50 [3]: > 10 µM

COc1cccc(OC)c1C(=O)Nc1cc(C(F)(F)F)ccc1Cl
pEC50 (Plasmodium falciparum [1]): < 5.90
pEC50 (Plasmodium falciparum [2]): 5.74
CC50 [3]: > 10 µM

CCCCC(CC)C(=O)N1CCN(C(C)c2nc3ccc(Cl)cc3c(=O)n2C)CC1 (centres undefined)
pEC50 (Plasmodium falciparum [1]): < 5.83
pEC50 (Plasmodium falciparum [2]): 5.74
CC50 [3]: > 10 µM

Cc1cc(NC(=O)/C=C/c2ccccc2Cl)ccc1Br
pEC50 (Plasmodium falciparum [1]): 5.87
pEC50 (Plasmodium falciparum [2]): 5.74
CC50 [3]: > 10 µM

O=C(NC1CC1)c1ccc(N2C(=O)C3C4c5ccccc5C(c5ccccc54)C3C2=O)cc1 (centres undefined)
pEC50 (Plasmodium falciparum [1]): < 6.06
pEC50 (Plasmodium falciparum [2]): 5.72
CC50 [3]: > 10 µM

O=C(Nc1ccc(C(F)(F)F)cc1)c1cc(S(=O)(=O)NC2CCCCCC2)ccc1F
pEC50 (Plasmodium falciparum [1]): 5.40
pEC50 (Plasmodium falciparum [2]): 5.48
CC50 [3]: 17.7 µM

Cc1ccc2[nH]c(/C(C#N)=C/c3cn(Cc4ccc(Cl)cc4Cl)nc3-c3ccccc3)nc2c1
pEC50 (Plasmodium falciparum [1]): < 5.99
pEC50 (Plasmodium falciparum [2]): 5.73
CC50 [3]: > 10 µM

CCOc1ccc(CN(CCC(c2ccccc2)c2ccccc2)C(=O)Nc2ccccc2C)cc1
pEC50 (Plasmodium falciparum [1]): < 5.87
pEC50 (Plasmodium falciparum [2]): 5.73
CC50 [3]: > 10 µM

CCN1C(=O)NC(c2cccc(NC(=O)Nc3cc(C(F)(F)F)cc(C(F)(F)F)c3)c2)C(C(=O)OC(C)C)=C1C (centres undefined)
pEC50 (Plasmodium falciparum [1]): 5.07
pEC50 (Plasmodium falciparum [2]): 5.22
CC50 [3]: 35.3 µM

CC(C)(c1ccc(Oc2ccc(NC(=O)c3ccccc3)cc2)cc1)c1cccc(Oc2ccc(NC(=O)c3ccccc3)cc2)c1
pEC50 (Plasmodium falciparum [1]): 5.81
pEC50 (Plasmodium falciparum [2]): 5.75
CC50 [3]: > 10 µM

CC(C)(C)c1ccc(NC(=O)CN2CCCCC2)cc1
pEC50 (Plasmodium falciparum [1]): < 4.90
pEC50 (Plasmodium falciparum [2]): < 5.06
CC50 [3]: 49.7 µM

O=C(Nc1ccc(N2CCCCC2)cc1)c1cc2ccccc2o1
pEC50 (Plasmodium falciparum [1]): < 5.89
pEC50 (Plasmodium falciparum [2]): 6.20
CC50 [3]: > 3.66 µM

COC(=O)c1ccccc1NC(=O)COc1cccc(OC)c1
pEC50 (Plasmodium falciparum [1]): < 5.85
pEC50 (Plasmodium falciparum [2]): 5.73
CC50 [3]: > 10 µM

COC(=O)COc1ccc(/C=C2\SC(=Nc3ccc(F)cc3)NC2=O)cc1
pEC50 (Plasmodium falciparum [1]): < 6.12
pEC50 (Plasmodium falciparum [2]): 5.75
CC50 [3]: > 10 µM

CC(C)CCn1c(NCc2ccccc2)nc2c1c(=O)n(CC(N)=O)c(=O)n2C
pEC50 (Plasmodium falciparum [1]): < 5.90
pEC50 (Plasmodium falciparum [2]): 5.77
CC50 [3]: > 10 µM

C[n+]1ccc(C2OC2c2ccccc2)c2ccccc21 (centres undefined)
pEC50 (Plasmodium falciparum [1]): 5.86
pEC50 (Plasmodium falciparum [2]): 5.76
CC50 [3]: > 10 µM

Cc1cc(Nc2ccc(Cl)cc2)n2nnnc2n1
pEC50 (Plasmodium falciparum [1]): < 5.78
pEC50 (Plasmodium falciparum [2]): 5.76
CC50 [3]: > 10 µM

COc1ccc([C@@H]2Nc3ccc(C(C)=O)cc3[C@@H]3C=CC[C@@H]32)cc1[N+](=O)[O-]
pEC50 (Plasmodium falciparum [1]): < 5.90
pEC50 (Plasmodium falciparum [2]): 5.76
CC50 [3]: > 10 µM

c1ccc(C2=NN(c3ccccc3)C(c3ccc4c(c3)OCO4)N2c2ccc(N3CCOCC3)cc2)cc1 (centres undefined)
pEC50 (Plasmodium falciparum [1]): 6.17
pEC50 (Plasmodium falciparum [2]): 5.75
CC50 [3]: > 10 µM

O=[N+]([O-])c1ccc(-n2cccc2C=NNc2ncnc3sc4c(c23)CCCC4)cc1
pEC50 (Plasmodium falciparum [1]): 5.56
pEC50 (Plasmodium falciparum [2]): 5.85
CC50 [3]: 7.45 µM

COCCCNC(=O)CSCc1nc(-c2ccccc2F)oc1C
pEC50 (Plasmodium falciparum [1]): < 6.33
pEC50 (Plasmodium falciparum [2]): < 5.76
CC50 [3]: > 10 µM

CCCNC(=O)N1CCC2(CC1)CC(=O)c1ccccc1O2
pEC50 (Plasmodium falciparum [1]): < 5.90
pEC50 (Plasmodium falciparum [2]): 5.75
CC50 [3]: > 10 µM

CCSc1ncnc2scc(-c3ccccc3)c12
pEC50 (Plasmodium falciparum [1]): < 5.82
pEC50 (Plasmodium falciparum [2]): 5.77
CC50 [3]: > 10 µM

CCOC(=O)NC(=O)N1CCC(c2nc(-c3cc(C(C)(C)C)c(O)c(C(C)(C)C)c3)cs2)CC1
pEC50 (Plasmodium falciparum [1]): 5.78
pEC50 (Plasmodium falciparum [2]): 5.73
CC50 [3]: > 10 µM

COc1ccc(CCNc2nc(NCCCn3ccnc3)ncc2C(=O)NCC(C)C)cc1OC
pEC50 (Plasmodium falciparum [1]): 6.25
pEC50 (Plasmodium falciparum [2]): < 5.90
CC50 [3]: > 6.78 µM

COc1ccccc1NC(=O)Cn1cnc2sc(C(=O)Nc3ccc(F)cc3)c(C)c2c1=O
pEC50 (Plasmodium falciparum [1]): 6.29
pEC50 (Plasmodium falciparum [2]): < 5.77
CC50 [3]: > 10 µM

c1ccc(CSc2scnc2[P+](c2ccccc2)(c2ccccc2)c2ccccc2)cc1
pEC50 (Plasmodium falciparum [1]): 6.47
pEC50 (Plasmodium falciparum [2]): 6.25
CC50 [3]: 3.19 µM

CC1=C(C(=O)OCCOc2ccccc2)C(c2cccc([N+](=O)[O-])c2)C2=C(CCCC2=O)N1 (centres undefined)
pEC50 (Plasmodium falciparum [1]): < 5.90
pEC50 (Plasmodium falciparum [2]): 5.74
CC50 [3]: > 10 µM

CCOc1ccc(N2C(=O)NC(=O)/C(=C\c3cn(C(C)=O)c4ccccc34)C2=O)cc1
pEC50 (Plasmodium falciparum [1]): < 5.90
pEC50 (Plasmodium falciparum [2]): 5.73
CC50 [3]: > 10 µM
